Measurements: patent publication US8715677B2, “Immunological uses of immunomodulatory compounds for vaccine and anti-infectious disease therapy” (Celgene Corporation, priority 2005, dated 2014)

Experiments:
Assay type in all cases: cell-based
RPMI-8226 MM cell lines = test: Cytotoxicity of γδ T cells, chromium release assay
Procedure: Gamma delta T cells were treated with a single dose of 25 μM IPP and weekly with 150 U/ml of IL-2 for 3 weeks and 1 day. RPMI-8226 target cells were incubated overnight with 50 μM pamidronate then treated with 3MBq 51Cr. Target, and effector cells were incubated at different ratios and chromium release was assayed after 4 hours. To determine the effects of Actimid™, the compound was either included in the 22 day preincubation before the assay and in the chromium release step, or was included during the chromium release assay.
Gamma delta cells were treated with a single dose of 25 μM IPP and weekly with 150 U/ml of IL-2 for 22 days. RPMI-8226 target cells were incubated overnight with 50 μM pamidronate, then treated with 3 MBq 51 Cr. Target and effector cells were incubated at various ratios with fresh Actimid™ and chromium release assayed after 4 hours. Actimid™ was also added to some wells for the 22 day pretreatment with IL-2 and IPP (FIG. 9A) or just for the 4 hr chromium release assay (FIG. 9B).

regulatory T cells = test: Treg suppression of anti-CD3 mAb activated CD4+CD25- cell proliferation; details: for suppressive function of Treg on anti-CD3 mAb activated CD4+CD25- cells: pre-incubation of Treg with compound
Procedure: An assay in which the ability of isolated Treg to suppress anti-CD3 mAb activated CD4+CD25− cells was performed.
Regulatory T cells were isolated by the Dynal T regulatory cell isolation kit, and treated for 24 hours with varying concentrations of an immunomodulatory compound (Actimid™ or lenalidomide) or DMSO. The cells were washed and incubated at a 1:2 ratio with CD25^−CD4^+ cells, which were also isolated by the Dynal T regulatory cell isolation kit. Results were expressed as the mean % change in proliferation compared to the cpms obtained from DMSO treated CD25^+ cells incubated with CD25^− cells.

γδ T cells [1] = test: Cytokine production by γδ T cells
Procedure: Purified γδ T cells were stimulated with IPP±IMiDs ([…]) or with the MM cell line RPMI-8226 (±IMiDs ([…])) in 24 well plates and were incubated 8-72 hours. Cell-free supernatants were collected and stored at −70° C. until assayed by ELISA. IFN-γ, TNF-α and IL-2 were measured by ELISA (BD pharmingen). For fresh δγ preps, PBMCs were stimulated with plate bound anti-CD3 (1.25 μg/ml) for 48 hours and the expression of TNF-α, IFNγ, IL-2 and IL-4 were measured by intracellular FACS on cells stained for γδ TCR.
The effects of Actimid™ on IFN-γ, TNF-α, and IL-4 were examined in freshly prepared γδ T cells and γδ T cell lines stimulated with IPP.

γδ T cells [2] = test: Apoptosis of γδ T cells (annexin V PE / 7-AAD); details: with or without IPP; FIG. 6
Procedure: Gamma delta T cells were treated with a single dose of 25 μM IPP and weekly with 150 U/ml of IL-2 for 4 weeks and 3 days. Cells were then either left untreated or treated with Actimid™, IPP or Actimid™ and IPP. Apoptosis was assessed by staining of cells with annexin V PE and 7-AAD at various time points and analysis using a FACSCalibur.
Gamma delta T cells were treated with a single dose of 25 μM IPP and weekly with 150 U/ml of IL-2 for 31 days. Cells were then either left untreated or treated with Actimid™, IPP, or Actimid™ and IPP in combination. Apoptosis was assessed by staining of cells with annexin V PE and 7-AAD at the stated time points and analysis using a FACSCalibur. Annexin V PE negative/7-AAD negative cells are designated live, annexin V PE positive/7-AAD negative early apoptotic, annexin V PE positive/7-AAD positive late apoptotic and annexin V PE negative/7-AAD positive dead.

γδ T cells [3] = test: IFN-γ production by γδ T cells in co-culture with tumor cells; details: co-culture with RPMI-8226 MM cells, with or without pamidronate; FIG. 8
Procedure: Tumor cells pre-incubated with (FIG. 8B) or without (FIG. 8A) pamidronate were incubated with δγ T cells at different tumor (RPMI-8226 MM) to γδ T cells ratios as indicated in FIG. 8. Some of the cells were further treated by Actimid™. Intracellular IFN-gamma production was measured by flow cytometry.

Raji cells = test: Direct effects on NHL tumor cells, alone or with anti CD20 antibodies; details: for effect in combination with anti CD20 antibody B1: 10 μM / up to 10 μM
Procedure: Direct effects of IMiDs on NHL tumor cells were tested by treating Raji cells with IMiDs alone, or in combination with anti CD20 antibodies B1 or rituxan. IMiD 1 alone caused up to 40% inhibition of proliferation at 10 μM in Raji cells, which corresponded to G1 arrest.

[4] = tested on: Rituximab-resistant cell line 2R; test: Rituximab-mediated ADCC by primed PBMC, 51Cr release, 2R cells; details: E:T 40:1
Procedure: (§1) Rituximab-resistant cell lines (RRCL) were generated by chronic exposure of Raji cells to escalating doses of rituximab alone (2R) or along with human complement (4RH). […] To study the effects of lenalidomide-priming of PBMC's against RRCL, peripheral blood mononuclear cells from healthy donors were cultured with either DMSO or lenalidomide (at final concentrations of 10 or 20 μg/ml), with or without IL-2 (20 IU/ml), over a 5-day period at 37° C., 5% CO2. Parentral Raji, and RRCL (2R and 4RH) were labeled with ^51Cr and exposed to either rituximab or trastuzumab (Isotype control at 20 μg/ml) in the presence of an IMiD or control stimulated-PBMCs (Effector:Target ratio of 40:1). ^51Cr release was measured and the percentage of lysis was calculated. Statistical differences were analyzed by chi-square test.

[5] = tested on: Rituximab-resistant cell line 4RH; test: Rituximab-mediated ADCC by primed PBMC, 51Cr release, 4RH cells
Procedure: as §1

Gab2 = Gab2 phosphorylation in anti-CD3/CD28 stimulated Jurkat T cells; details: at about 1 μM, dose-dependent
Excerpt: The Gab proteins, including Gab1, Gab2 and Gab3 comprise a growing family of phospho-tyrosine regulated scaffolding molecules involved in RTK signal transduction. Phosphorylation of Gab1 in B cells is associated with P13-kinase activity and cell proliferation. While Gab1 is expressed in B cells, only Gab2 is expressed in T cells. Although Gab2 is tyrosine phosphorylated upon TCR activation by ZAP-70, it functions as a negative regulator of TCR signaling via a Shp-2 dependent mechanism. Overexpression of Gab2 in T cells results in the inhibition of IL-2 production (Yamasaki et al., J. Biol. Chem., 2001). The effect of lenalidomide on Gab2 phosphorylation and activation in anti-CD3/CD28 stimulated Jurkat T cells was examined. Lenalidomide inhibited Gab2 phosphorylation dose-dependently (with approximately 50% inhibition at about 1 μM) in a manner that correlated with T cell costimulation and enhancement of IL-2 production.

Foxp3 = Foxp3 expression in CD4+CD25+ cells (intracellular staining); details: CD4+CD25+ cells incubated 24 hours; FIG. 3
Procedure: CD4^+CD25^+ cells were incubated for 24 hours with varying concentrations of DMSO, Actimid™, lenalidomide, or thalidomide and then washed twice with RPMI medium. Cells were stained with CD152-PE, CD4-PERCP, and CD25-APC. Intracellular Foxp3 staining and CD152 staining were carried out after permeabilizing the CD4^+ CD25^+ cells. Results were expressed as percentage of expression of Foxp3 in the CD4^+CD25^+ population or the CD4^+CD25^− population.

[6] = TCR γδ cells within freshly prepared PBMC population

## Nc1cccc2c1C(=O)N(C1CCC(=O)NC1=O)C2=O (centres unmarked) [Actimid, 4-(amino)-2-(2,6-dioxo(3-piperidyl))-isoindoline-1,3-dione]
RPMI-8226 MM cell lines; compound added during the 4 hr chromium release assay only, FIG. 9B
  cytotoxicity of γδ T cells toward RPMI-8226 MM cell lines: enhanced
RPMI-8226 MM cell lines; compound added during the 22 day pretreatment, FIG. 9A
  cytotoxicity of γδ T cells toward RPMI-8226 MM cell lines: enhanced
Regulatory T cells
  suppressive function of Treg on anti-CD3 mAb activated CD4+CD25- cells: inhibits the suppressive function
γδ T cells [1]; [6]
  production of IFN-γ: enhanced
  production of TNF-α: enhanced
γδ T cells [1]; γδ T cells stimulated with IPP
  production of IFN-γ: enhanced
  production of IL-4: not
γδ T cells [2]
  apoptosis in γδ T cells: protection against apotosis
γδ T cells [3]
  IFN-γ production by γδ T cells: augmented
Raji cells; 10 μM
  effect in combination with rituxan: slight additive effect
Raji cells
  effect in combination with anti CD20 antibody B1: small additive effect

## Nc1cccc2c1CN(C1CCC(=O)NC1=O)C2=O (centres unmarked) [IMiD]
[4]; PBMC exposed to IMiD for 5 days
  rituximab-mediated ADCC, mean % lysis: 26.9+/−1.18%
[4]; PBMC exposed to IMiD+IL-2 for 5 days
  rituximab-mediated ADCC, mean % lysis: 38.4+/−4.14%
[5]; IMiD exposed PBMC
  mean % of lysis by ADCC: 26.5+/−1.83%
[5]; combination IMiD/IL-2 exposed PBMC
  mean % of lysis by ADCC: 38.4+/−4.1%

## Nc1cccc2c1CN(C1CCC(=O)NC1=O)C2=O (centres unmarked) [lenalidomide, 3-(4-amino-1-oxo-1,3-dihydro-isoindol-2-yl)-piperidine-2,6-dione]
Gab2
  inhibition of Gab2 phosphorylation: approximately 50%
Regulatory T cells
  suppressive function of Treg on anti-CD3 mAb activated CD4+CD25- cells: inhibits the suppressive function
Raji cells
  effect in combination with anti CD20 antibody B1: minimal

## O=C1CCC(N2C(=O)c3ccccc3C2=O)C(=O)N1 (centres unmarked) [thalidomide, reference compound]
Foxp3
  Foxp3 expression: little effects
Regulatory T cells; Treg treated 24 hours, washed, 1:2 ratio with CD25-CD4+ cells, FIG. 2
  proliferation of CD25- cells in the presence of CD25+CD4+ cells, compared to DMSO treated CD4+CD25+ cells: little effect
